From ChEMBL document CHEMBL1201862, “PubChem BioAssay data set” (2004)
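Where inhibition never reached the appropriate level, the endpoint shown equals the highest concentration tested. Otherwise, values were interpolated linearly from a five-concentration, 48-hour dose response in 96-well plates. Here, GI50 denotes the concentration required for 50% inhibition of growth.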 Calls of active or inactive are those of the source. Rule as the data show it: active = GI50 up to about 1.1 µM and inactive = higher.

Experiments:
Assay in all cases: NCI anticancer screen, dose series, 48 h
SR = tested on: SR
HOP-62 = tested on: HOP-62
T47D = tested on: T47D
Hs-578T = tested on: Hs-578T
NCI-H460 = tested on: NCI-H460
MDA-MB-231 = tested on: MDA-MB-231
KM12 = tested on: KM12
MCF7 = tested on: MCF7
HCT-15 = tested on: HCT-15
A549 = tested on: A549
SF-539 = tested on: SF-539
SK-OV-3 = tested on: SK-OV-3
RPMI-8226 = tested on: RPMI-8226
RXF 393 = tested on: RXF 393
SF-295 = tested on: SF-295
SK-MEL-5 = tested on: SK-MEL-5
UACC-62 = tested on: UACC-62
PC-3 = tested on: PC-3
786-0 = tested on: 786-0

Structure (SMILES) | GI50 (SR) | GI50 (HOP-62) | GI50 (T47D) | GI50 (Hs-578T) | GI50 (NCI-H460) | GI50 (MDA-MB-231) | GI50 (KM12) | GI50 (MCF7) | GI50 (HCT-15) [µM] | GI50 (A549) | GI50 (SF-539) | GI50 (SK-OV-3) | GI50 (RPMI-8226) | GI50 (RXF 393) | GI50 (SF-295) | GI50 (SK-MEL-5) | GI50 (UACC-62) | GI50 (PC-3) | GI50 (786-0)
Cc1cc(O)c2cc3c(O)c(O)ccc3cc2c1 | 0.618 µM (active) | 1.29 µM (inactive) | 1.75 µM (inactive) | 0.465 µM (active) | 0.524 µM (active) | 1.25 µM (inactive) | 0.561 µM (active) | 2.27 µM (inactive) | 1.2 | 1.14 µM (inactive) | 0.822 µM (active) | 0.774 µM (active) | 0.326 µM (active) | 0.713 µM (active) | 0.619 µM (active) | 0.243 µM (active) | 1.52 µM (inactive) | 0.302 µM (active) | 3.95 µM (inactive)
CN(C)c1ccc(/C=C2\Oc3cc(O)ccc3C2=O)cc1 | 52 µM (inactive) | > 100 µM (inactive) | > 100 µM (inactive) | > 100 µM (inactive) | 80.5 µM (inactive) | 53.1 µM (inactive) | 61.2 µM (inactive) | 80.9 µM (inactive) | 44.9 | 88.1 µM (inactive) | > 100 µM (inactive) | > 100 µM (inactive) | 74.1 µM (inactive) | > 100 µM (inactive) | 30.5 µM (inactive) | 80.7 µM (inactive) | > 100 µM (inactive) | > 100 µM (inactive) | > 100 µM (inactive)
CCOC(=O)C(=O)C(=O)NN(C)C1=NCCN1 | > 100 µM (inactive) | > 100 µM (inactive) | > 100 µM (inactive) | > 100 µM (inactive) | > 100 µM (inactive) | > 100 µM (inactive) | > 100 µM (inactive) | > 100 µM (inactive) | > 100 | > 100 µM (inactive) | > 100 µM (inactive) | > 100 µM (inactive) | > 100 µM (inactive) | > 100 µM (inactive) | > 100 µM (inactive) | > 100 µM (inactive) | > 100 µM (inactive) | > 100 µM (inactive) | > 100 µM (inactive)
CC(C)(C)c1cc(C2COC(=O)COCC(=O)OCCOCCOCCO2)cc(C(C)(C)C)c1O (stereo not given) | 58.1 µM (inactive) | 46.7 µM (inactive) | > 100 µM (inactive) | 17.9 µM (inactive) | 30.9 µM (inactive) | 44.6 µM (inactive) | > 100 µM (inactive) | > 100 µM (inactive) | > 100 | > 31.6 µM (inactive) | 45.5 µM (inactive) | 24.9 µM (inactive) | > 100 µM (inactive) | 20.7 µM (inactive) | 23.6 µM (inactive) | > 100 µM (inactive) | 27.2 µM (inactive) | 40.2 µM (inactive) | 21.4 µM (inactive)
OC1(c2ccc(Cl)cc2)c2ccccc2C2=Nc3ccccc3CN21 (stereo not given) | 5.93 µM (inactive) | 12.9 µM (inactive) | 45.5 µM (inactive) | 23 µM (inactive) | 37.6 µM (inactive) | 34.6 µM (inactive) | 28 µM (inactive) | 21.9 µM (inactive) | 30.8 | 12.7 µM (inactive) | 39.6 µM (inactive) | 38.5 µM (inactive) | 33.4 µM (inactive) | 21 µM (inactive) | 20.4 µM (inactive) | > 46.1 µM (inactive) | > 86.9 µM (inactive) | 45.8 µM (inactive) | 13.1 µM (inactive)
O=Nc1c(-c2c(O)[nH]c3ccccc23)[nH]c2ccccc12 [INDIRUBIN-3-MONOXIME] | 4.85 µM (inactive) | 7.23 µM (inactive) | 4.3 µM (inactive) | 4.47 µM (inactive) | 3.53 µM (inactive) | 3.38 µM (inactive) | 0.0865 µM (active) | 3.13 µM (inactive) | 2.48 | 3.8 µM (inactive) | 20 µM (inactive) | 1.56 µM (inactive) | 3.95 µM (inactive) | 1.93 µM (inactive) | 10.1 µM (inactive) | 3.99 µM (inactive) | 2.93 µM (inactive) | 3.72 µM (inactive) | 7.57 µM (inactive)
COC(=O)c1c(CC(Cc2ccc3c(c2)CCCC3)C(=O)OC)ccc2c1CCCC2 (stereo not given) | 34.7 µM (inactive) | > 100 µM (inactive) | 35.8 µM (inactive) | > 100 µM (inactive) | 88.5 µM (inactive) | > 100 µM (inactive) | 40.3 µM (inactive) | 20.6 µM (inactive) | 46.2 | 37 µM (inactive) | > 100 µM (inactive) | 39.2 µM (inactive) | 24.9 µM (inactive) | 60.5 µM (inactive) | > 100 µM (inactive) | 29.4 µM (inactive) | > 100 µM (inactive) | 38.7 µM (inactive) | > 100 µM (inactive)
Nc1ccc(S(=O)(=O)NCc2nccs2)cc1 | 31 µM (inactive) | 36.8 µM (inactive) | 24.1 µM (inactive) | 27.3 µM (inactive) | 26.5 µM (inactive) | 24.9 µM (inactive) | 20.9 µM (inactive) | 23.4 µM (inactive) | 26.7 | 27.9 µM (inactive) | 19.1 µM (inactive) | 32.3 µM (inactive) | 25.8 µM (inactive) | 29.9 µM (inactive) | 32 µM (inactive) | 15.8 µM (inactive) | 17.5 µM (inactive) | 30.1 µM (inactive) | 28.3 µM (inactive)
CCC(=O)NC(Nc1cccc(F)c1C)(C(F)(F)F)C(F)(F)F | 75.3 µM (inactive) | > 100 µM (inactive) | > 100 µM (inactive) | 54.5 µM (inactive) | > 100 µM (inactive) | > 100 µM (inactive) | > 100 µM (inactive) | > 100 µM (inactive) | > 100 | > 100 µM (inactive) | > 100 µM (inactive) | > 100 µM (inactive) | > 100 µM (inactive) | 3.88 µM (inactive) | > 100 µM (inactive) | > 100 µM (inactive) | > 100 µM (inactive) | > 100 µM (inactive) | > 100 µM (inactive)
C=C1C(=O)O[C@H]2C[C@@H]1C(=O)CC(C)CCCC(C)=CCC[C@@]2(C)O (stereo not given in full) | 16.8 µM (inactive) | > 25 µM (inactive) | > 25 µM (inactive) | > 25 µM (inactive) | > 25 µM (inactive) | > 25 µM (inactive) | > 25 µM (inactive) | > 25 µM (inactive) | > 25 | > 25 µM (inactive) | > 25 µM (inactive) | > 25 µM (inactive) | > 25 µM (inactive) | > 25 µM (inactive) | > 25 µM (inactive) | > 25 µM (inactive) | > 25 µM (inactive) | > 25 µM (inactive) | > 25 µM (inactive)
CCCC[C@@H](C)/C=C1\CN2CCC[C@H]2[C@@](C)(O)[C@@H]1O | 9.2 µM (inactive) | 52.1 µM (inactive) | 30.8 µM (inactive) | > 100 µM (inactive) | 16.7 µM (inactive) | > 100 µM (inactive) | > 100 µM (inactive) | 80.2 µM (inactive) | > 100 | 43.7 µM (inactive) | 62.2 µM (inactive) | 73.3 µM (inactive) | > 100 µM (inactive) | 0.0292 µM (active) | 55.7 µM (inactive) | 79.1 µM (inactive) | 38.7 µM (inactive) | > 100 µM (inactive) | 45.2 µM (inactive)
c1cc2nnc1SCCSCCCSCCS2 | > 100 µM (inactive) | 35.2 µM (inactive) | > 100 µM (inactive) | > 100 µM (inactive) | > 100 µM (inactive) | 29.6 µM (inactive) | > 100 µM (inactive) | > 100 µM (inactive) | > 100 | > 100 µM (inactive) | 20 µM (inactive) | > 100 µM (inactive) | > 100 µM (inactive) | > 100 µM (inactive) | > 100 µM (inactive) | > 100 µM (inactive) | > 100 µM (inactive) | > 100 µM (inactive) | 67 µM (inactive)
O=C1CCCC2C3CC(CN12)C1CCCCN1C3.[O-][Cl+3]([O-])([O-])O (stereo not given) | > 100 µM (inactive) | > 100 µM (inactive) | > 100 µM (inactive) | > 100 µM (inactive) | > 100 µM (inactive) | > 100 µM (inactive) | > 100 µM (inactive) | > 100 µM (inactive) | > 100 | > 100 µM (inactive) | > 100 µM (inactive) | > 100 µM (inactive) | > 100 µM (inactive) | > 100 µM (inactive) | > 100 µM (inactive) | > 100 µM (inactive) | > 100 µM (inactive) | > 100 µM (inactive) | > 100 µM (inactive)
Cc1cc(-c2nc3cccc(O)c3s2)ccc1N | 40.8 µM (inactive) | 27 µM (inactive) | 62.5 µM (inactive) | 5.75 µM (inactive) | 29.1 µM (inactive) | 31.3 µM (inactive) | 10.3 µM (inactive) | 12.5 µM (inactive) | 35 | 15.7 µM (inactive) | 57.4 µM (inactive) | 52.8 µM (inactive) | 45.2 µM (inactive) | > 100 µM (inactive) | 28.8 µM (inactive) | 19.3 µM (inactive) | 16.3 µM (inactive) | 27.7 µM (inactive) | 34.1 µM (inactive)
[O-][S@@+]1c2ccc3ccccc3c2N[C@@H]2[C@H]1[C@H]1C=C[C@@H]2C1 | 30 µM (inactive) | 59.4 µM (inactive) | 16.5 µM (inactive) | 30.1 µM (inactive) | 37.6 µM (inactive) | 32.3 µM (inactive) | 31.1 µM (inactive) | 26.1 µM (inactive) | 33.1 | 57.5 µM (inactive) | > 100 µM (inactive) | 42.1 µM (inactive) | 31.6 µM (inactive) | 19.5 µM (inactive) | 40.5 µM (inactive) | 28 µM (inactive) | 84.1 µM (inactive) | 32.4 µM (inactive) | 64.3 µM (inactive)
